Laboratory results from article PMC12210912, “Pharmacologic properties and inhibitory activity of 6-azasteroids against Mycobacterium leprae in vivo and in vitro” (Microbiology Spectrum, 2025).

How the values were obtained:
[1] = in vivo pharmacokinetics in CD1 male mice; details: for bioavailability: male, CD1, mouse, oral, 5 mg/kg, read-out: F (bioavailability); for Cmax / Tmax / half-life: mouse
Experimental: Experiments were performed by Pharmaron, Inc. The metabolism and pharmacokinetics of the 6-azasteroids were studied in CD1 male mice approximately 8 weeks old and 20–30 g. […] Each group contained three mice. Blood samples were collected in anticoagulant tubes containing potassium ethylenediaminetetraacetic acid.
Four quality control samples (1, 2, 50, and 800 ng/mL) for plasma were prepared independently of those used for the calibration curves. These quality control samples were prepared on the day of analysis in the same way as the calibration standards. An aliquot (33 µL) of each standard, quality control sample, and unknown sample (30 µL of plasma combined with 3 µL of blank solution) was added to 200 µL of acetonitrile containing an internal standard mixture for precipitating protein. […] The supernatant was diluted three times with water. Diluted supernatant (5 µL) was quantitatively analyzed by LC-MS/MS (API 4000 Triple Quad—AB Sciex, Canada; LC-30A HPLC—Shimadzu, Japan). Non-compartmental pharmacokinetic analysis was performed with Phoenix WinNonlin software (ver. 6.1, Certara, US) using composite data.

LXRα = molecular target: T1, LXRα (Homo sapiens, UniProt Q13133); test: LXRα radioligand binding inhibition; details: [3H]T0901317 binding, recombinant protein; for % inhibition observed, LXRα: 10 µM; for inhibition at 10 µM: read-out: % inhibition observed, LXRα
T1 construct: Eurofins (assay provider); host or cells: E. coli
T1 sequence (Q13133 1-447): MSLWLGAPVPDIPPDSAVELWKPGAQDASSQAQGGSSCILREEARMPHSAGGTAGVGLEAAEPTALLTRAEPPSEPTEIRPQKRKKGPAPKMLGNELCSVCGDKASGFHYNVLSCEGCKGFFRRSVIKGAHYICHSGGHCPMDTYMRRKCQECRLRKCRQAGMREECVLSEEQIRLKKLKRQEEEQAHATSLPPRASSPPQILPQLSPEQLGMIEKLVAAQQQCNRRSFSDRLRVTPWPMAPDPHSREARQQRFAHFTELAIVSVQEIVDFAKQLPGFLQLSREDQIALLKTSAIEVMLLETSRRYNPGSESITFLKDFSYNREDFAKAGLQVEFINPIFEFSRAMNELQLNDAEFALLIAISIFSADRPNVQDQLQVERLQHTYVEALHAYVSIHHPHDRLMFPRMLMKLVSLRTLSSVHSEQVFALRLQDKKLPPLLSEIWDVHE
Experimental: Four nuclear receptors: glucocorticoid, androgen, LXRα, and LXRβ were assayed. Inhibition of agonist binding to each of the receptors was carried out following a standard protocol by Eurofins, Inc., USA. Compounds were tested at 10 µM. Compound binding was measured by scintillation counting and was calculated as a % inhibition of the binding of a radioactively labeled ligand specific for each target. Percent inhibition of control specific binding was expressed as
100−[(measured specific binding)/(control specific binding)∗100]
where measured specific binding is the amount of radioactive ligand binding obtained in the presence of test compounds.
(iii) LXRα (human) recombinant protein expressed in E. coli; agonist radioligand 20 nM [^3H] […] (iv) LXRβ (human) recombinant protein expressed in E. coli; agonist radioligand 20 nM [^3H]

[2] = compound plasma concentration in Balb/c mice by LC-MS; assay type: in vivo; details: 50 mg/kg; for plasma level at the end of the experiment with infected mice: Balb/c mice, 6 h after last dose, alone or with rifampicin
Experimental: Animal experimentation was conducted under approval by the ILSL ethical committee (CEUA ILSL 02/19). Balb/c female mice with 8-week-old were inoculated with 5 × 10^3 live M. leprae bacilli, strain Thai-53, in both hind footpads, as previously described for the Shepard’s model ([25]). Eight groups were tested in the experiment: (i) M. leprae control group (n = 5) inoculated with M. leprae and no additional treatment; (ii) vehicle control group (n = 4) inoculated with M. leprae and treatment with vehicle of the drugs; (iii) regular rifampicin treatment, 10 mg/Kg dose; (iv) sub-inhibitory rifampicin, 1 mg/kg dose (n = 5); (v) compound 2 treatment (n = 4), 50 mg/kg dose; (vi) compound 2 with sub-inhibitory rifampicin (n = 5), 50 mg/kg dose of compound 2 and 1 mg/kg dose of rifampicin; (vii) compound 5 treatment (n = 5), 50 mg/kg dose; and (viii) compound 5 with sub-inhibitory rifampicin (n = 5), 50 mg/kg dose of compound 5 and 1 mg/kg dose of rifampicin. One month after inoculation, mice from the control group were euthanized and the hind footpad was collected to assess the establishment of the infection by bacillary enumeration. At that time point, vehicle or drug treatment was started for the remaining groups. All compounds were administrated by gavage, rifampicin was administered weekly, and the compounds were administered daily (excluding weekends) for 1 month (20 doses). Mice were euthanized 6 h after administration of the last dose, and blood was collected in heparin-coated tubes by cardiac puncture for blood enzyme evaluation and compound 5 measurement by LC/MS in the plasma. The infected hind footpads from each group of mice were excised, homogenized and bacilli enumerated in a 100 µL aliquot as previously described ([26]). […]
Uninfected Balb/c female mice (n = 36), approximately 8 weeks old and 20 g, were divided into three groups. […] Concentrations of compound 5 in plasma were determined by LC/MS.
Compound 5 quantification in the plasma was performed on lipid extracts from plasma samples. […]

[3] = plasma, 5 mg/kg PO vs 1 mg/kg IV

| SMILES | AUCinf ([1]; 1 mg/kg IV) | Clobs (observed clearance) ([1]; 1 mg/kg IV) | F (bioavailability) ([1]; 5 mg/kg PO vs 1 mg/kg IV) | AUCinf ([1]; 5 mg/kg PO, plasma) | compound remaining in plasma after 6 h ([1]; PO administration) | in vivo t1/2 relative to compound 1 ([1]; longer than compound 1) | bioavailability [1, 3] | Cmax ([1]; 5 mg/kg PO, plasma) | Tmax ([1]; 5 mg/kg PO, plasma) | half-life ([1]; 5 mg/kg PO, plasma) | Cmax ([1]; plasma, 1 mg/kg IV) | Tmax ([1]; plasma, 1 mg/kg IV) | % inhibition observed, LXRα (LXRα) | inhibition at 10 µM (LXRα) | plasma level at the end of the experiment with infected mice [2] | plasma levels over 4 weeks, alone vs in combination with rifampicin ([2]; non-infected Balb/c mice, rifampicin 1 mg/kg, weekly time points) | time by which most of the compound was cleared from plasma ([1]; PO administration) |
| --- | --- | --- | --- | --- | --- | --- | --- | --- | --- | --- | --- | --- | --- | --- | --- | --- | --- |
| C[C@]12CCC3C(CNC4=CC(=O)CC[C@@]43C)C1CCC2C(=O)NC(c1ccc(F)cc1)c1ccc(F)cc1 (stereo partly shown) [Compound 5] | 3,123 h·ng/g | 5.34 (mL/min)/kg | 118.9% | 18,566 h·ng/g | more than 50% | approximately 2.5 fold | 119% | 2210 ng/mL | 30 min | 168 min | 838 ng/mL | 156 min | low binding | 11% | detectable levels | no significant differences | – |
| CC(C)(C)c1ccc(C(C)(C)C)c(NC(=O)C2CCC3C4CNC5=CC(=O)CC[C@]5(C)C4CC[C@]23C)c1 (stereo partly shown) [Compound 1] | 356 ng·h/g | 46.8 (mL/min)/kg | – | 822.1 ng·h/g | – | – | 46.2% | 501 ng/mL | 30 min | 60 min | 803 ng/mL | 38.5 min | significantly inhibit binding | 53% | – | – | ≤ 4 h |
| CCCN1CC2C3CCC(C(=O)Nc4cc(C(C)(C)C)ccc4C(C)(C)C)[C@@]3(C)CCC2[C@@]2(C)CCC(=O)C=C12 (stereo partly shown) [Compound 2] | – | – | – | – | – | – | – | – | – | – | – | – | significantly inhibit binding | 64% | detectable levels | – | – |
